Patent US9284321B2, “Piperazino[1,2-a]indol-1-ones and [1,4]diazepino[1,2-a]indol-1-one” (Hoffmann-La Roche Inc., priority 2012, dated 2016)

Assays:
[1] = tested on: human embryonic stem cell derived neural stem cells (NSCs); experiment: Neural Stem Cell Proliferation Assay (neurogenesis assay, ATP levels by CellTiterGlo); assay type: cell-based; conditions: 96 h, compound concentration at which 150% activity of control (100%) is reached, NSC proliferation by ATP level after 4 days incubation, dose response 8 μM to 8 nM
How it was run: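 Read-out is CellTiterGlo ATP luminescence after 4-day culture (37 °C, 5% CO2) of dual-SMAD-derived human ESC NSCs, dosed 4 h post-seeding at 8 μM to 8 nM (11 points, 2-fold). EC150 marks the concentration reaching 150% of the media-only control (0.25% DMSO).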

Row | SMILES | EC (150% of control) [1] [µM] | melting point [°C]
1 | Cc1c2n(c3c(-c4ccc(C(C)(C)C)cc4)cc(C#N)cc13)CCNC2=O [Example 280, 6-(4-tert-Butylphenyl)-10-methyl-1-oxo-3,4-dihydro-2H-pyrazino[1,2-a]indole-8-carbonitrile] | 0.14 | 292
2 | Cc1c2n(c3c(-c4ccnc(Cl)c4)cc(C#N)cc13)CCNC2=O [Example 281, 6-(2-Chloropyridin-4-yl)-10-methyl-1-oxo-3,4-dihydro-2H-pyrazino[1,2-a]indole-8-carbonitrile] | 0.22 | 281
3 | Cc1c2n(c3c(-c4cccnc4)cc(C#N)cc13)CCNC2=O [Example 282, 10-Methyl-1-oxo-6-pyridin-3-yl-3,4-dihydro-2H-pyrazino[1,2-a]indole-8-carbonitrile] | 0.96 | 273
4 | Cc1c2n(c3c(-c4cncnc4)cc(C#N)cc13)CCNC2=O [Example 283, 10-Methyl-1-oxo-6-pyrimidin-5-yl-3,4-dihydro-2H-pyrazino[1,2-a]indole-8-carbonitrile] | 1.61 | 325
5 | N#Cc1cc(-c2ccc(F)c(F)c2F)c2c(c1)cc1n2CCCNC1=O [Example 284, 1-Oxo-7-(2,3,4-trifluorophenyl)-2,3,4,5-tetrahydro-[1,4]diazepino[1,2-a]indole-9-carbonitrile] | 0.16 | 187
6 | N#Cc1cc(-c2cccc(Cl)c2)c2c(c1)cc1n2CCCNC1=O [Example 285, 7-(3-Chlorophenyl)-1-oxo-2,3,4,5-tetrahydro-[1,4]diazepino[1,2-a]indole-9-carbonitrile] | 3.12 | 209
7 | Cc1ccc(-c2cc(C#N)cc3cc4n(c23)CCCNC4=O)cc1 [Example 287, 7-(4-Methylphenyl)-1-oxo-2,3,4,5-tetrahydro-[1,4]diazepino[1,2-a]indole-9-carbonitrile] | 0.22 | 240.5
8 | Cc1ccc(-c2cc(C#N)cc3c(C)c4n(c23)CCCNC4=O)cc1 [Example 288, 11-Methyl-7-(4-methylphenyl)-1-oxo-2,3,4,5-tetrahydro-[1,4]diazepino[1,2-a]indole-9-carbonitrile] | 0.04 | 287
9 | Cc1c2n(c3c(-c4cccc(F)c4)cc(C#N)cc13)CCCNC2=O [Example 289, 7-(3-Fluorophenyl)-11-methyl-1-oxo-2,3,4,5-tetrahydro-[1,4]diazepino[1,2-a]indole-9-carbonitrile] | 0.035 | 261
10 | Cc1c2n(c3c(-c4cc(F)cc(F)c4)cc(C#N)cc13)CCCNC2=O [Example 290, 7-(3,5-Difluorophenyl)-11-methyl-1-oxo-2,3,4,5-tetrahydro-[1,4]diazepino[1,2-a]indole-9-carbonitrile] | 0.29 | 265
11 | Cc1ccc(-c2cc(C#N)cc3c(C)c4n(c23)CCCNC4=O)cc1F [Example 291, 7-(3-Fluoro-4-methylphenyl)-11-methyl-1-oxo-2,3,4,5-tetrahydro-[1,4]diazepino[1,2-a]indole-9-carbonitrile] | 0.16 | 265
12 | Cc1cc(-c2cc(C#N)cc3c(C)c4n(c23)CCNC4=O)ccc1F [Example 292, 6-(4-Fluoro-3-methylphenyl)-10-methyl-1-oxo-3,4-dihydro-2H-pyrazino[1,2-a]indole-8-carbonitrile] | 0.089 | 232
13 | Cc1c2n(c3c(-c4ccc(S(C)(=O)=O)cc4)cc(C#N)cc13)CCNC2=O [Example 294, 10-Methyl-6-(4-methylsulfonylphenyl)-1-oxo-3,4-dihydro-2H-pyrazino[1,2-a]indole-8-carbonitrile] | 0.27 | 332
14 | Cc1c2n(c3c(-c4ccc(Cl)c(C(F)(F)F)c4)cc(C#N)cc13)CCNC2=O [Example 295, 6-[4-Chloro-3-(trifluoromethyl)phenyl]-10-methyl-1-oxo-3,4-dihydro-2H-pyrazino[1,2-a]indole-8-carbonitrile] | 0.3 | 278
15 | Cc1c2n(c3c(-c4ccc(Cl)c(Cl)c4)cc(C#N)cc13)CCCNC2=O [Example 296, 7-(3,4-Dichlorophenyl)-11-methyl-1-oxo-2,3,4,5-tetrahydro-[1,4]diazepino[1,2-a]indole-9-carbonitrile] | 0.2 | 254
16 | Cc1c2n(c3c(-c4ccc(Cl)c(F)c4)cc(C#N)cc13)CCCNC2=O [Example 297, 7-(4-Chloro-3-fluorophenyl)-11-methyl-1-oxo-2,3,4,5-tetrahydro-[1,4]diazepino[1,2-a]indole-9-carbonitrile] | 0.096 | 247.5
17 | Cc1c2n(c3c(-c4cccnc4)cc(C#N)cc13)CCCNC2=O [Example 298, 11-Methyl-1-oxo-7-pyridin-3-yl-2,3,4,5-tetrahydro-[1,4]diazepino[1,2-a]indole-9-carbonitrile] | 1 | 260
